Source: ChEMBL document CHEMBL6120969, “Distinctive Immune Signatures Driven by Structural Alterations in Desmuramylpeptide NOD2 Agonists” (J Med Chem, 2024)
The source made the active and inactive calls.

Legend:
[1] = Cytotoxicity against human HEK-Blue hNOD2 cells assessed as metabolic activity at 10 uM incubated for 18 hes by MTT assay; assay type: toxicity, cell-based; conditions: hek-blue hnod2, 10 µM
PBMC [2] = test: Immunomodulatory activity in human PBMC cells assessed as increase in IL-4 level at 2 uM incubated for 18 hrs y flow cytometry analysis; assay type: functional, cell-based
How it was run: (§1)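 Human donor PBMCs (Ficoll-Paque; 1 × 10^6 cells/mL, 500 μL, 48-well plates) were treated with compounds at 2 μM or 0.1% DMSO vehicle without LPS for 18 h at 37 °C, 5% CO2. Cytokines in cell-free supernatants were quantified with the LEGENDplex Human Essential Immune Response Panel on a flow cytometer against kit recombinant standard curves. Four independent replicates; two-way ANOVA with Tukey's test.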

PBMC [3] = test: Immunomodulatory activity in human PBMC cells assessed as increase in IL-2 level at 2 uM incubated for 18 hrs y flow cytometry analysis; assay type: functional, cell-based; how it was run: as §1
PBMC [4] = test: Immunomodulatory activity in human PBMC cells assessed as increase in IP-10 level at 2 uM incubated for 18 hrs y flow cytometry analysis; assay type: functional, cell-based; how it was run: as §1
PBMC [5] = test: Immunomodulatory activity in human PBMC cells assessed as increase in IL-1beta level at 2 uM incubated for 18 hrs y flow cytometry analysis; assay type: functional, cell-based; how it was run: as §1
PBMC [6] = test: Immunomodulatory activity in human PBMC cells assessed as increase in TNF-alpha level at 2 uM incubated for 18 hrs y flow cytometry analysis; assay type: functional, cell-based; how it was run: as §1
PBMC [7] = test: Immunomodulatory activity in human PBMC cells assessed as increase in MCP-1 level at 2 uM incubated for 18 hrs y flow cytometry analysis; assay type: functional, cell-based; how it was run: as §1
PBMC [8] = test: Immunomodulatory activity in human PBMC cells assessed as increase in IL-17A level at 2 uM incubated for 18 hrs y flow cytometry analysis; assay type: functional, cell-based; how it was run: as §1
PBMC [9] = test: Immunomodulatory activity in human PBMC cells assessed as increase in IL-6 level at 2 uM incubated for 18 hrs y flow cytometry analysis; assay type: functional, cell-based; how it was run: as §1
PBMC [10] = test: Immunomodulatory activity in human PBMC cells assessed as increase in IL-10 level at 2 uM incubated for 18 hrs y flow cytometry analysis; assay type: functional, cell-based; how it was run: as §1
PBMC [11] = test: Immunomodulatory activity in human PBMC cells assessed as increase in IFN-gamma level at 2 uM incubated for 18 hrs y flow cytometry analysis; assay type: functional, cell-based; how it was run: as §1
PBMC [12] = test: Immunomodulatory activity in human PBMC cells assessed as increase in IL-12p70 level at 2 uM incubated for 18 hrs y flow cytometry analysis; assay type: functional, cell-based; how it was run: as §1
PBMC [13] = test: Immunomodulatory activity in human PBMC cells assessed as increase in IL-8 level at 2 uM incubated for 18 hrs y flow cytometry analysis; assay type: functional, cell-based; how it was run: as §1
PBMC [14] = test: Immunomodulatory activity in human PBMC cells assessed as increase in TGF-beta1 level at 2 uM incubated for 18 hrs y flow cytometry analysis; assay type: functional, cell-based; how it was run: as §1
PBMC [15] = test: Immunomodulatory activity in human PBMC cells assessed as increase in LPS-induced IL-1beta level at 2 uM incubated for 18 hrs y flow cytometry analysis; assay type: functional, cell-based
PBMC [16] = test: Immunomodulatory activity in human PBMC cells assessed as increase in LPS-induced IL-6 level at 2 uM incubated for 18 hrs y flow cytometry analysis; assay type: functional, cell-based
How it was run: (§2)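 Peripheral blood mononuclear cells from human donors were isolated with Ficoll-Paque and plated in 48-well plates at 1 × 10^6 cells/mL, 500 μL per well. Cells received compounds at 2 μM or 0.1% DMSO together with LPS (10 ng/mL) and were kept for 18 h at 37 °C, 5% CO2. Cytokine levels in cell-free supernatants were measured by flow cytometry with the LEGENDplex Human Essential Immune Response Panel, using the kit's recombinant standard curves. Data come from four independent replicates analysed by two-way ANOVA with Tukey's test.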

PBMC [17] = test: Immunomodulatory activity in human PBMC cells assessed as increase in LPS-induced IL-10 level at 2 uM incubated for 18 hrs y flow cytometry analysis; assay type: functional, cell-based; how it was run: as §2
PBMC [18] = test: Immunomodulatory activity in human PBMC cells assessed as increase in LPS-induced TNF-alpha level at 2 uM incubated for 18 hrs y flow cytometry analysis; assay type: functional, cell-based
PBMC [19] = test: Immunomodulatory activity in human PBMC cells assessed as increase in LPS-induced IL-12p70 level at 2 uM incubated for 18 hrs y flow cytometry analysis; assay type: functional, cell-based
PBMC [20] = test: Immunomodulatory activity in human PBMC cells assessed as increase in LPS-induced IFN-gamma level at 2 uM incubated for 18 hrs y flow cytometry analysis; assay type: functional, cell-based
PBMC [21] = test: Immunomodulatory activity in human PBMC cells assessed as increase in LPS-induced MCP-1 level at 2 uM incubated for 18 hrs y flow cytometry analysis; assay type: functional, cell-based; how it was run: as §2
PBMC [22] = test: Immunomodulatory activity in human PBMC cells assessed as increase in LPS-induced IP-10 level at 2 uM incubated for 18 hrs y flow cytometry analysis; assay type: functional, cell-based; how it was run: as §2
PBMC [23] = test: Cytotoxicity against human PBMC cells co-cultured with human K562 cells at 10 uM incubated for 4 hrs; assay type: functional, cell-based
How it was run: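 Killing was scored as the share of K562 cells positive for both CFSE and Sytox blue. Human PBMCs were seeded in 96-well plates at 4 × 10^5 per well and pretreated for 18 h with compounds at 10 μM, with 0.1% DMSO as vehicle. CFSE-stained K562 cells were then added at 1 × 10^4 per well (effector:target 40:1) for 4 h at 37 °C, 5% CO2, before Sytox blue staining and reading on an Attune NxT flow cytometer. Assays ran in duplicate across three independent biological replicates and were analysed by one-way ANOVA with Dunnett's test.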

[24] = Cytotoxicity against human PBMC cells at 10 uM incubated for 4 hrs; assay type: toxicity, cell-based
How it was run: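 Direct cytotoxicity was scored as the fraction of Sytox blue-positive cells among human PBMCs cultured without other cells. The PBMCs were exposed to compounds at 10 μM, with 0.1% DMSO as vehicle, alongside a K562 killing assay, then stained with Sytox blue dead cell stain and run on an Attune NxT flow cytometer, with analysis in FlowJo. Each condition was tested in duplicate across three independent biological replicates, and one-way ANOVA with Dunnett's test was applied.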

[25] = Anti-inflammatory activity in human PBMC cells assessed as increase in percentage of non classical monocytes at 10 uM incubated for 18 hrs by flow cytometry analysis; assay type: functional
[26] = Anti-inflammatory activity in human PBMC cells assessed as increase in percentage of intermediate monocytes at 10 uM incubated for 18 hrs by flow cytometry analysis; assay type: functional
[27] = Anti-inflammatory activity in human PBMC cells assessed as increase in percentage of classical monocytes at 10 uM incubated for 18 hrs by flow cytometry analysis; assay type: functional
BMDC [28] = test: Adjuvant activity in OVA-immunized C57BL/6J mouse BMDC cells assessed as increase in CD4+ T cell activation incubated for 18 hrs; assay type: functional, cell-based
How it was run: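 Dendritic cells were derived from C57BL/6 mouse bone marrow by 7 days of culture with GM-CSF, then pretreated for 18 h with compounds at 10 μM together with 50 μg/mL ovalbumin and washed. These cells (1 × 10^4/well) were co-cultured with 5 × 10^4 CFSE-labelled OT II CD4+ T cells for 72 h at 37 °C in 5% CO2. T-cell activation was assessed by flow cytometry on live Thy1.2+/CD4+ cells, using CFSE dilution and CD25 expression as readouts. Assays were run in duplicate across two independent biological replicates and analysed with paired t tests.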

BMDC [29] = test: Adjuvant activity in OVA-immunized C57BL/6J mouse BMDC cells co-cultured with mouse CD4+ T cells assessed as increase in IL-2 level at 10 uM incubated for 18 hrs; assay type: functional, cell-based
BMDC [30] = test: Adjuvant activity in OVA-immunized C57BL/6J mouse BMDC cells co-cultured with mouse CD4+ T cells assessed as increase in IL-9 level at 10 uM incubated for 18 hrs; assay type: functional, cell-based
BMDC [31] = test: Adjuvant activity in OVA-immunized C57BL/6J mouse BMDC cells co-cultured with mouse CD4+ T cells assessed as increase in IL-6 production at 10 uM incubated for 18 hrs by flow cytometry analysis; assay type: functional, cell-based
BMDC [32] = test: Adjuvant activity in OVA-immunized C57BL/6J mouse BMDC cells co-cultured with mouse CD8+ T cells assessed as increase in IL-9 production at 10 uM incubated for 18 hrs by flow cytometry analysis; assay type: functional, cell-based

Measured: Activity

CCOC(=O)CC[C@@H](NC(=O)[C@@H](NC(=O)CNC(=O)/C=C/c1ccc(OC(=O)CO[C@H]2CC[C@@]3(C)C(=CC[C@H]4[C@@H]5CC[C@H]([C@H](C)CCCC(C)C)[C@@]5(C)CC[C@@H]43)C2)c(OC)c1)C(C)C)C(=O)OCC
4.53%: [26]
0.35%: [27]
76.6%: [25]
Moderate_effect: [24]
Non-toxic: [1]
active: all other assays above
